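The compound was tested at five concentrations on cells cultured in 96-well plates, with a 48-hour exposure period. TGI is the concentration that stops growth completely.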
Tests used:
Assay in all cases: inhibition of tumour cell growth, NCI panel, 48 h
[1] = test system: UO-31 renal
[2] = test system: HCC-2998 colon
[3] = test system: MDA-N
[4] = test system: RXF 393 renal
[5] = test system: 786-0 renal
[6] = test system: SF-539 CNS
[7] = test system: U251 CNS
[8] = test system: MOLT-4 leukemia
[9] = test system: SK-OV-3 ovarian
[10] = test system: CAKI-1 renal
[11] = test system: SR leukemia
[12] = test system: A498 renal
[13] = test system: RPMI-8226 leukemia
[14] = test system: MCF7 breast
[15] = test system: OVCAR-5 ovarian
[16] = test system: NCI-H460 lung
[17] = test system: SN12C renal
[18] = test system: HS 578T breast
[19] = test system: HOP-62 NSCLC
[20] = test system: A549 NSCLC
[21] = test system: HCT-116 colon
[22] = test system: UACC-257 melanoma
[23] = test system: OVCAR-8 ovarian
[24] = test system: NCI-H23 lung
[25] = test system: KM12 colon
[26] = test system: TK-10 renal
[27] = test system: M14 melanoma
[28] = test system: SK-MEL-2 melanoma
[29] = test system: ACHN renal
[30] = test system: UACC-62 melanoma
[31] = test system: LOX IMVI melanoma
[32] = test system: T-47D breast
[33] = test system: HL-60(TB) leukemia
[34] = test system: SK-MEL-5 melanoma
[35] = test system: SF-295 CNS
[36] = test system: CCRF-CEM leukemia
[37] = test system: SNB-19 CNS
[38] = test system: PC-3 prostate
[39] = test system: MDA-MB-435
[40] = test system: OVCAR-4 ovarian
[41] = test system: K-562 leukemia
[42] = test system: HT29 colon
[43] = test system: DU-145 prostate
[44] = test system: NCI/ADR-RES ovarian
[45] = test system: SNB-75 CNS
[46] = test system: SF-268 CNS
[47] = test system: SK-MEL-28 melanoma
[48] = test system: HOP-92 NSCLC
[49] = test system: MDA-MB-231 breast
[50] = test system: NCI-H226 lung
[51] = test system: OVCAR-3 ovarian
[52] = test system: COLO 205 colon
[53] = test system: SW-620 colon
[54] = test system: MALME-3M melanoma
[55] = test system: EKVX NSCLC
[56] = test system: HCT-15 colon

CCOC(=O)C(=O)/C(=C/n1c(=S)[nH]c2ccc([N+](=O)[O-])cc21)C(=O)OCC
TGI [1]: > 100 µM | TGI [2]: > 100 µM | TGI [3]: > 100 µM | TGI [4]: > 100 µM | TGI [5]: > 100 µM | TGI [6]: > 100 µM | TGI [7]: > 100 µM | TGI [8]: > 100 µM | TGI [9]: > 100 µM | TGI [10]: > 100 µM | TGI [11]: > 100 µM | TGI [12]: > 100 µM | TGI [13]: > 100 µM | TGI [14]: > 100 µM | TGI [15]: > 100 µM | TGI [16]: > 100 µM | TGI [17]: > 100 µM | TGI [18]: > 100 µM | TGI [19]: > 100 µM | TGI [20]: > 100 µM | TGI [21]: > 100 µM | TGI [22]: > 100 µM | TGI [23]: > 100 µM | TGI [24]: > 100 µM | TGI [25]: > 100 µM | TGI [26]: > 100 µM | TGI [27]: > 100 µM | TGI [28]: > 100 µM | TGI [29]: > 100 µM | TGI [30]: > 100 µM | TGI [31]: > 100 µM | TGI [32]: > 100 µM | TGI [33]: > 100 µM | TGI [34]: > 100 µM | TGI [35]: > 100 µM | TGI [36]: > 100 µM | TGI [37]: > 100 µM | TGI [38]: > 100 µM | TGI [39]: > 100 µM | TGI [40]: > 100 µM | TGI [41]: > 100 µM | TGI [42]: > 100 µM | TGI [43]: > 100 µM | TGI [44]: > 100 µM | TGI [45]: > 100 µM | TGI [46]: > 100 µM | TGI [47]: > 100 µM | TGI [48]: > 100 µM | TGI [49]: > 100 µM | TGI [50]: > 100 µM | TGI [51]: > 100 µM | TGI [52]: > 100 µM | TGI [53]: > 100 µM

Oc1ccc(O)c(Cc2ccccc2)c1
TGI [1]: 28.4 µM | TGI [54]: 88.9 µM | TGI [2]: > 100 µM | TGI [3]: 41.5 µM | TGI [5]: 33.7 µM | TGI [6]: 23 µM | TGI [7]: 45.8 µM | TGI [8]: 22.8 µM | TGI [9]: > 100 µM | TGI [11]: 14.5 µM | TGI [12]: > 100 µM | TGI [13]: 21.3 µM | TGI [14]: 29.4 µM | TGI [15]: > 100 µM | TGI [16]: 49.5 µM | TGI [17]: 38.6 µM | TGI [18]: > 100 µM | TGI [19]: 60.3 µM | TGI [20]: > 100 µM | TGI [55]: > 100 µM | TGI [22]: 99.5 µM | TGI [23]: 33.9 µM | TGI [24]: > 100 µM | TGI [25]: 65.2 µM | TGI [26]: 51.3 µM | TGI [27]: 73.9 µM | TGI [28]: 37.3 µM | TGI [29]: 28.7 µM | TGI [30]: 56.1 µM | TGI [31]: 41 µM | TGI [32]: 11.8 µM | TGI [33]: 4.14 µM | TGI [34]: 37.9 µM | TGI [35]: > 100 µM | TGI [36]: > 100 µM | TGI [37]: > 100 µM | TGI [38]: > 100 µM | TGI [39]: 42 µM | TGI [40]: 27.2 µM | TGI [41]: 25.8 µM | TGI [56]: 29.1 µM | TGI [42]: > 100 µM | TGI [43]: 22.8 µM | TGI [44]: 42.9 µM | TGI [46]: 27.8 µM | TGI [47]: > 100 µM | TGI [48]: 35.6 µM | TGI [49]: 46.6 µM | TGI [50]: 57.2 µM | TGI [51]: 7.8 µM | TGI [52]: 32.6 µM | TGI [53]: 56.9 µM

— PubChem BioAssay (NCI)
